# Tests used:
# MDA-MB-435 = test: Inhibition of cell migration in human MDA-MB-435 cells incubated for 24 hrs by hematoxylin staining based assay; type: functional; conditions: MDA-MB-435, 24 h
# HEp-2 = test: Cytotoxicity against human HEp-2 cells assessed as cell growth inhibition by measuring effective dose; type: functional; conditions: read-out: ED50 (the source's name)
# MCF7 = test: Cytotoxicity against human MCF7 cells assessed as cell growth inhibition by MTT assay; type: functional, cell-based
# MDA-MB-231 [1] = test: Cytotoxicity against human MDA-MB-231 cells assessed as cell growth inhibition by alamar blue assay; type: functional, cell-based
# HeLa = test: Cytotoxicity against human HeLa cells assessed as cell growth inhibition by alamar blue assay; type: functional, cell-based
# U-937 = test: Cytotoxicity against human U-937 cells assessed as cell growth inhibition by alamar blue assay; type: functional, cell-based
# Jurkat = test: Cytotoxicity against human Jurkat cells assessed as cell growth inhibition by alamar blue assay; type: functional, cell-based
# MCF-10A = test: Cytotoxicity against human MCF-10A cells assessed as cell growth inhibition by alamar blue assay; type: functional, cell-based
# ACHN [2] = test: Cytotoxicity against human ACHN cells; type: functional, cell-based
# [3] = Cytotoxicity against human HEK293F cells; type: toxicity, cell-based
# MKN-45 = test: Cytotoxicity against human MKN-45 cells; type: functional, cell-based
# XF498 = test: Cytotoxicity against human XF498 cells assessed as inhibition of cell growth by measuring its effective dose; type: functional; conditions: read-out: ED50 (the source's name)
# SK-OV-3 = test: Cytotoxicity against human SK-OV-3 cells assessed as inhibition of cell growth by measuring its effective dose; type: functional; conditions: read-out: ED50 (the source's name)
# SK-MEL-2 = test: Cytotoxicity against human SK-MEL-2 cells assessed as inhibition of cell growth by measuring its effective dose; type: functional; conditions: read-out: ED50 (the source's name)
# A549 [4] = test: Cytotoxicity against human A549 cells assessed as inhibition of cell growth by measuring its effective dose; type: functional; conditions: read-out: ED50 (the source's name)
# HCT-15 = test: Cytotoxicity against human HCT-15 cells assessed as inhibition of cell growth by measuring its effective dose; type: functional; conditions: read-out: ED50 (the source's name)
# K562 [5] = test: Cytotoxicity against human K562 cells by MTT assay; type: functional, cell-based
# KB [6] = test: Cytotoxicity against human KB cells by MTT assay; type: functional, cell-based
# KB [7] = test: Cytotoxicity against human KB cells assessed as cell growth inhibition incubated for 24 hrs by MTT assay; type: functional, cell-based
# A549 [8] = test: Cytotoxicity against human A549 cells assessed as cell growth inhibition incubated for 24 hrs by MTT assay; type: functional, cell-based; conditions: A549, 24 h
# MDA-MB-231 [9] = test: Cytotoxicity against human MDA-MB-231 cells assessed as cell growth inhibition incubated for 24 hrs by MTT assay; type: functional, cell-based; conditions: MDA-MB-231, 24 h
# K562 [10] = test: Cytotoxicity against human K562 cells assessed as cell growth inhibition incubated for 24 hrs by MTT assay; type: functional, cell-based; conditions: K562, 24 h
# Col2 = test: Cytotoxicity against human Col2 cells assessed as cell growth inhibition incubated for 24 hrs by MTT assay; type: functional, cell-based; conditions: Col2, 24 h
# K562 [11] = test: Antiproliferative activity against human K562 cells assessed as reduction in cell viability incubated for 48 hrs by CCK-8 assay; type: functional, cell-based; conditions: K562, 48 h
# P388 = test: Cytotoxicity against mouse P388 cells; type: functional, cell-based; conditions: Mus musculus, P388; read-out: IC50
# L1210 = test: Cytotoxicity against mouse L1210 cells; type: functional, cell-based
# T-24 = test: Cytotoxicity against human T24 cells assessed as cell viability; type: functional
# ACHN [12] = test: Cytotoxicity against human ACHN cells assessed as cell viability; type: functional
compound,measurement,setting,value
CCCCCCCCCCCCCCCCOCC(COC1O[C@H](CO)[C@@H](O[C@@H]2O[C@H](CO)[C@H](O)[C@H](O)[C@H]2O)[C@H](O)[C@H]1O)OC (stereo not given in full),IC50,MDA-MB-435,300 nM
CCCCCCCCCCCC(=O)O[C@@H]1[C@@H](O)[C@@H](OC(=O)/C=C/c2ccccc2)[C@H](O[C@@H]2[C@@H](O[C@@H]3O[C@@H](C)[C@H](O)[C@@H](O)[C@H]3O)[C@@H](OC(=O)C(C)C)[C@H](O[C@@H]3[C@@H](O)[C@H]4OC(=O)CCCCCCCCC[C@@H](CCCCC)O[C@@H]5O[C@H](C)[C@@H](O)[C@H](O)[C@H]5O[C@@H]4O[C@H]3C)O[C@H]2C)O[C@H]1C,EC50,HEp-2,2 µg/mL
C/C=C(\C)C(=O)O[C@@H]1[C@@H](O)[C@@H]2O[C@H]3[C@H](O[C@@H](CCCCC)CCCCCCCCCC(=O)OC[C@@H](O2)[C@H]1OC(=O)/C=C/c1ccccc1)O[C@H](C)[C@H](OC(C)=O)[C@@H]3O,IC50,MCF7,33 nM
same,IC50,MDA-MB-231 [1],16.1 nM
same,IC50,HeLa,14.9 nM
same,IC50,U-937,11.1 nM
same,IC50,Jurkat,9.7 nM
same,IC50,MCF-10A,30.7 nM
CCCCCCCC(=O)O[C@H]1[C@H](OC[C@@H](O)[C@@H](O)[C@H](O)CO)O[C@H](COC(=O)CCCCC)[C@@H](OC(=O)CCCCC)[C@@H]1OC(=O)CCCCC,IC50,ACHN [2],6800 nM
same,IC50,[3],8900 nM
same,IC50,MKN-45,7500 nM
CCCCCCCCCCCCCCCCOC[C@H](O)COC1[C@@H](O)[C@H](O)[C@@H](O)[C@@H]1O,EC50,XF498,4.3 µg/mL
same,EC50,SK-OV-3,4.3 µg/mL
same,EC50,SK-MEL-2,4.3 µg/mL
same,EC50,A549 [4],4.3 µg/mL
same,EC50,HCT-15,4.3 µg/mL
C/C=C(\C)[C@H](O)[C@H](C)/C=C/C=C/C/C(C)=C/Cc1nc(OC)c(OC)c(OC2O[C@@H](C)[C@H](O)[C@@H](O)[C@H]2O)c1C (stereo not given in full),IC50,K562 [5],2.9 µg/mL
same,IC50,KB [6],4.5 µg/mL
CCCCCCCCO[C@@H]1O[C@@H](C)[C@H](OC(=O)CCCCC)[C@@H](O[C@@H]2O[C@@H](C)[C@H](OC(C)=O)[C@@H](O[C@@H]3O[C@@H](C)[C@H](OC(C)=O)[C@@H](O[C@@H]4O[C@@H](C)[C@H](O)[C@@H](O)[C@H]4OC(C)=O)[C@H]3OC(C)=O)[C@H]2OC(C)=O)[C@H]1O,IC50,KB [7],700 nM
same,IC50,A549 [8],700 nM
same,IC50,MDA-MB-231 [9],700 nM
same,IC50,K562 [10],700 nM
same,IC50,Col2,700 nM
CCCCCCCCCCN1C[C@H](NC(C)=O)[C@@H](O)[C@H](O)C1=O,IC50,K562 [11],19800 nM
CO[C@@H]1[C@H](O[C@@H]2CO[C@@H](O[C@@H]3[C@@H](O)[C@H](O)CO[C@H]3N3C(=O)/C(=C(O)/C=C/C=C/C=C/C=C/C=C(Cl)/C=C(\C)Cl)C(=O)[C@@H]3CC(N)=O)[C@@H](O)[C@@H]2O)O[C@H](C)[C@H]1O [AURANTOSIDE A],IC50,P388,1.8 µg/mL
same,IC50,L1210,3.4 µg/mL
C\C(Cl)=C/C(Cl)=C/C=C/C=C/C=C/C=C/C(O)=C1\C(=O)[C@H](CC(N)=O)N([C@@H]2OC[C@@H](O)[C@H](O)[C@H]2O[C@@H]2OC[C@@H](O[C@@H]3O[C@H](C)[C@@H](O)[C@@H]3O)[C@@H](O)[C@@H]2O)C1=O [AURANTOSIDE B],IC50,P388,3.2 µg/mL
same,IC50,L1210,3.3 µg/mL
COc1cccc2c1C(=O)c1c(O)c3c(c(O)c1C2=O)C[C@@](O)(C(=O)CO)C[C@@H]3O[C@H]1C[C@H](N)[C@H](O)[C@H](C)O1 [DOXORUBICIN],Activity,T-24,79%
CC(=O)O[C@H]1C(=O)[C@@]2(C)[C@H]([C@H](OC(=O)c3ccccc3)[C@]3(O)C[C@H](OC(=O)[C@H](O)[C@@H](NC(=O)c4ccccc4)c4ccccc4)C(C)=C1C3(C)C)[C@]1(OC(C)=O)CO[C@@H]1C[C@@H]2O [PACLITAXEL],Activity,ACHN [12],65.8%

# Reference: ChEMBL document CHEMBL5260828, “Amphiphilic glycoconjugates as potential anti-cancer chemotherapeutics” (Eur J Med Chem, 2018)
